Data on three molecules can be found in article PMC7108740, “Exploring the molecular structures that confer ligand selectivity for galanin type II and III receptors” (PLoS ONE, 2020).

Where a chain is given by its changes, count along the chain named. Ends that are not written are not given here.

Holding throughout (assay type): cell-based
In test [1] the target is T1, GALR3 single mutant L^100F (Homo sapiens, UniProt O60755, L100F).
T1 construct: expressed in transfected cells; host or cells: HEK293 cells stably expressing Gqi
T1 sequence (O60755 1-368 L100F): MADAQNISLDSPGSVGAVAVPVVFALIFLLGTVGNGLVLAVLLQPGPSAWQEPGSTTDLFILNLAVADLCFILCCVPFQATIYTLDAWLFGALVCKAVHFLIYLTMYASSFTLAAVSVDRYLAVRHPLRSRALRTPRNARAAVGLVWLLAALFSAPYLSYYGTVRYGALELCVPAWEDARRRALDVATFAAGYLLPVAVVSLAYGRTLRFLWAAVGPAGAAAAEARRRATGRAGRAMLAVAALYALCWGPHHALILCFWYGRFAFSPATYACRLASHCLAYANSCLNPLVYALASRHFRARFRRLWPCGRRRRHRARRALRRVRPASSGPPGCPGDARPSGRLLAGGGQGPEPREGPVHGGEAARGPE
The test is described as follows: SRE-luc luciferase assay, GALR3 L100F. As to conditions: GALR3 L^100F; SRE-luc in HEK293 Gqi cells, ligand 6 h; mean ± S.E.; SEM. The source says:
(§1) For domain swapping between GALR2 and GALR3, individual cDNA fragments of interest were amplified by polymerase chain reaction (PCR) with Pfu polymerase (ELPIS Biotech, Daejeon, Korea) and two specific primers, one corresponding to the 5' or 3' end of the GALR2 or GALR3 cDNA and the other to the region of overlap between the two receptors. The two resulting fragments, one from GALR2 and the other from GALR3, were subjected to a second round of PCR to generate the chimeric cDNAs. To construct single, double-, triple-, pentuple-, hextuple-, and septuple-mutant receptors, amino acids of GALR3 were substituted for the amino acids at the corresponding positions in GALR2 using PCR-based site-directed mutagenesis. All of the chimeric constructs were cloned into the pcDNA3 expression vector at HindⅢ and XbaⅠ sites. The DNA sequences of the chimeras were verified by automatic sequencing. HEK293 cells stably expressing the Gqi construct, which allows induction of Gq-dependent signaling pathways upon activation of a Gi-coupled receptor [14, 30], were maintained in Dulbecco's Modified Eagle's Medium (DMEM) in the presence of 10% fetal bovine serum and 1% penicillin and streptomycin. For all transfections, 200 ng DNA (100 ng receptor and 100 ng SRE-luc) mixed with lipofectamine 2000 was applied to 60–80% confluent cells on a multi-well plate according to the manufacturer's instructions (Invitrogen, Carlsbad, CA). For luciferase assays, HEK293 Gqi cells were seeded on 48-well plates at a density of 2.5 × 10^4 cells/well one day before transfection. […] The luciferase activity in 50 μl cell extract was determined using a luciferase assay system according to the standard protocol for the Synergy 2 Multi-Mode Microplate Reader (BioTek, Winooski, VT, USA). […] The concentrations of agonists that induced half-maximal stimulation (EC50) were calculated using the GraphPad PRISM5 software (GraphPad software, Inc., San Diego, CA). […]

The target in test [2] is T2, GALR3 single mutant Y^103F (Homo sapiens, UniProt O60755, Y103F).
T2 construct: expressed in transfected cells; host or cells: HEK293 cells stably expressing Gqi
T2 sequence (O60755 1-368 Y103F): T1 sequence (O60755 1-368 L100F) with F100L, Y103F
The test is described as follows: SRE-luc luciferase assay, GALR3 Y103F. As to conditions: GALR3 Y^103F; SRE-luc in HEK293 Gqi cells, ligand 6 h; mean ± S.E.; SEM.
Source text: as §1

The target of test [3] is T3, GALR3 double mutant L^100F, Y^103F (Homo sapiens, UniProt O60755, L100F/Y103F).
T3 construct: expressed in transfected cells; host or cells: HEK293 cells stably expressing Gqi
T3 sequence (O60755 1-368 L100F/Y103F): T1 sequence (O60755 1-368 L100F) with Y103F
The test is described as follows: SRE-luc luciferase assay, GALR3 L100F,Y103F. As to conditions: GALR3 L^100F, SRE-luc in HEK293 Gqi cells, ligand 6 h, mean ± S.E., SEM.
Source text: as §1

As a reminder, the EC50 is the concentration needed to bring the measured effect to its halfway point.

Turning to NWTPQAALYLKGAQ-NH2 [A^7-SPX], the EC50 amounted to 269 ± 45.3 nM in test [1], 302 ± 72.9 nM in test [2] and 155 ± 45.2 nM in test [3].

For NWTPNAMLYLKGAQ-NH2 [N^5-SPX], the results for the concentration for a half-maximal effect (EC50) in test [1], in test [2] and in test [3] were 288 ± 84.2 nM, 676 ± 127 nM and 174 ± 45 nM, respectively.

As to `CSCC[C@H](NC(=O)[C@H](C)NC(=O)[C@H](CCC(N)=O)NC(=O)[C@@H]1CCCN1C(=O)[C@@H](NC(=O)[C@H](Cc1c[nH]c2ccccc12)NC(=O)[C@@H](N)CC(N)=O)[C@@H](C)O)C(=O)N[C@@H](CC(C)C)C(=O)N[C@@H](Cc1ccc(O)cc1)C(=O)N[C@@H](CC(C)C)C(=O)N[C@@H](CCCCN)C(=O)NCC(=O)N[C@@H](C)C(=O)N[C@@H](CCC(N)=O)C(N)=O` [SPX, reference compound], the EC50 in test [1] came out at 66.1 ± 13.6 nM; in test [2], 32.4 ± 10.5 nM; in test [3], 42.7 ± 9.54 nM.
